# pIC50: −log10 of the molar value. The source made the active and inactive calls. The calls are words filed in the database; no cut-off is given here.
# Columns and labels:
# [1] = molecular target: T1, P2X purinoceptor 7 (Homo sapiens) (UniProt Q99572); experiment: Binding affinity to human P2X7 receptor expressed in HEK293 cell membrane assessed as inhibition of [125I]-4-(1-(1-(4-iodobenzoyl)piperidin-4-yl)-1H-imidazol-5-yl)phenyl isoquinoline-5-sulfonate binding to receptor at 1 uM incubated for 60 mins by high throughput screening relative to control; assay type: cell membranes
# T1 sequence (whole entry): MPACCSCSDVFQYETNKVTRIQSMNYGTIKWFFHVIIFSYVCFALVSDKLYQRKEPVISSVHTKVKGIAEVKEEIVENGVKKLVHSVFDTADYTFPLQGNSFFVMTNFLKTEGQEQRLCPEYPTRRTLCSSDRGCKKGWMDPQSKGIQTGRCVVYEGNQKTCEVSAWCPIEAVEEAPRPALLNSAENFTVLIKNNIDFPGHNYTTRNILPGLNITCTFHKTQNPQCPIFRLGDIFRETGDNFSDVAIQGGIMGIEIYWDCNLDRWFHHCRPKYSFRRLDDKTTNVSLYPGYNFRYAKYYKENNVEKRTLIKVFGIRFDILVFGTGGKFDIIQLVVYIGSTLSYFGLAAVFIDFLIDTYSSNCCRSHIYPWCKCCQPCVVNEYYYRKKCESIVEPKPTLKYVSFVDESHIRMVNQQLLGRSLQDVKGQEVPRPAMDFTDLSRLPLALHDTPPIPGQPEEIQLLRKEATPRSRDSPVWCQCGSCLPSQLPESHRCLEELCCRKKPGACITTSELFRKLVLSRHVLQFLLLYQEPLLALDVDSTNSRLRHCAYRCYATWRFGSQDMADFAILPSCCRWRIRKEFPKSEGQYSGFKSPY
# P2X purinoceptor 7 [2] = molecular target: T2, P2X purinoceptor 7 (Homo sapiens, UniProt Q99572); experiment: Antagonist activity at human P2X7 receptor expressed in HEK293 cells assessed as inhibition of BzATP-induced increase in fluorescence preincubated for 30 mins followed by BzATP addition and measured after 15 mins by YO-PRO-1 based inverted fluorescence microscopic analysis; assay type: cell-based
# T2 sequence (Q99572 whole entry): T1 sequence (whole entry)
# [3] = molecular target: T1, P2X purinoceptor 7 (Homo sapiens); experiment: Antagonist activity at human P2X7 receptor expressed in HEK293 cells assessed as inhibition of BzATP-induced inward current at 300 nM preincubated with compound for 3 mins followed by BzATP addition by whole-cell voltage clamp method; assay type: cell-based; design: scale not given: the % may be the effect or the level left; conditions: filed as antagonist
# [4] = molecular target: T1, P2X purinoceptor 7 (Homo sapiens); experiment: Antagonist activity at human P2X7 receptor expressed in HEK293 cells assessed as inhibition of BzATP-induced inward current at 300 nM preincubated with compound for 3 mins followed by BzATP addition and measured after 25 mins of washout by whole-cell voltage clamp method; assay type: cell-based; conditions: filed as antagonist, time 28.0 min
# [5] = molecular target: T3, P2X purinoceptor 2 (Rattus norvegicus) (UniProt P49653); experiment: Antagonist activity at rat P2X2 receptor expressed in HEK293 cells assessed as inhibition of BzATP-induced inward current at 1 uM by whole-cell voltage clamp method; assay type: cell-based
# T3 sequence (whole entry): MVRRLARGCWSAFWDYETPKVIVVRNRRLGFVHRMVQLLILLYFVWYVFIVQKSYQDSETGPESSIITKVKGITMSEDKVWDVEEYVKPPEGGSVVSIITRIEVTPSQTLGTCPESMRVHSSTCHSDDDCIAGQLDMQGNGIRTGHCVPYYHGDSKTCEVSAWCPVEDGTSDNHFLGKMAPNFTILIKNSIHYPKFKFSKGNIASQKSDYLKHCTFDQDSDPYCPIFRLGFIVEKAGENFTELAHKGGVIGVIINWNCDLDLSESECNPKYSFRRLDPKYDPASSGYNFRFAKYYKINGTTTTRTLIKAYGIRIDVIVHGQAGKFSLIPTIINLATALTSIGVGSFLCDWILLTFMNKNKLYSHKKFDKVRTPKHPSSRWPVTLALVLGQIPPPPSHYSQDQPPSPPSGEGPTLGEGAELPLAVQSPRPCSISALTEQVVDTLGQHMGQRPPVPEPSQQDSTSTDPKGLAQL
# [6] = molecular target: T1, P2X purinoceptor 7 (Homo sapiens); experiment: Antagonist activity at human P2X7 receptor expressed in HEK293 cells assessed as inhibition of BzATP-induced increase in fluorescence at 1 uM preincubated for 30 mins followed by BzATP addition and measured after 15 mins by YO-PRO-1 based inverted fluorescence microscopic analysis; assay type: cell-based; conditions: filed as antagonist, time 45.0 min
# P2X purinoceptor 7 [7] = molecular target: T2, P2X purinoceptor 7; experiment: Binding affinity to human P2X7 receptor expressed in HEK293 cell membrane incubated for 60 mins in presence of [125I]-4-(1-(1-(4-iodobenzoyl)piperidin-4-yl)-1H-imidazol-5-yl)phenyl isoquinoline-5-sulfonate by competitive binding assay; assay type: cell membranes
Compound,inhibition [1] [%],pIC50 (P2X purinoceptor 7 [2]),other results
CNCC(=O)Nc1ccc(Cl)c(C(=O)NCc2cccc3cnccc23)c1,< 35,< 6.00,–
O=C1CNC(C(=O)Nc2ccc(Cl)c(C(=O)NCc3cccc4cnccc34)c2)CN1 (stereo unspecified),< 35,< 6.00,–
O=C(c1ccc(I)cc1)N1CCC(n2cncc2-c2ccc(OS(=O)(=O)c3cccc4cnccc34)cc2)CC1,–,9.60,Activity [3]: 100%; Activity [4]: Active; inhibition ([1]; filed as antagonist): 76%; Activity [5]: inactive; Activity [6]: Active
O=C(NCc1cccc2cnccc12)c1cc(O)ccc1Cl,< 35,< 6.00,–
O=C(c1ccc(Br)cc1)N1CCC(n2cncc2-c2ccc(OS(=O)(=O)c3cccc4cnccc34)cc2)CC1,–,–,inhibition ([1]; filed as antagonist): 71%; pIC50 (P2X purinoceptor 7 [7]): 8.15
O=C(c1ccc([N+](=O)[O-])cc1)N1CCC(n2cncc2-c2ccc(OS(=O)(=O)c3cccc4cnccc34)cc2)CC1,–,–,inhibition ([1]; filed as antagonist): 74%; pIC50 (P2X purinoceptor 7 [7]): 8.10
O=C(OCc1cccc2cnccc12)c1cc(NC(=O)[C@H]2CCCN2)ccc1Cl,< 35,< 6.00,–

# Second part, led by results:
inhibition [1] [%],pIC50 (P2X purinoceptor 7 [2]),Compound,other results
< 35,< 6.00,COc1ccc(Cl)c(C(=O)NCc2cccc3cnccc23)c1,–
< 35,< 6.00,COc1ccc(Cl)c(C(=O)NNC(=O)c2cccc3ncccc23)c1,–
< 35,< 6.00,COc1ccc(C(=O)Nc2ccc(Cl)c(C(=O)OCc3cccc4cnccc34)c2)nc1,–
< 35,< 6.00,NCC(=O)Nc1ccc(Cl)c(C(=O)OCc2cccc3cnccc23)c1,–
< 35,< 6.00,COc1ccc(Cl)c(C(=O)NNC(=O)[C@H]2CC[C@H](C(F)(F)F)CC2)c1,–
< 35,< 6.00,O=C(NCc1cccc2cnccc12)c1cc(OCCF)ccc1Cl,–
45,–,O=C(NCc1cccc(C(F)(F)F)c1Cl)[C@@H]1CCC(=O)N1C/C=C/I,–

# — ChEMBL document CHEMBL6078726, “Synthesis and in vitro evaluation of novel compounds and discovery of a promising iodine-125 radioligand for purinergic P2X7 receptor (P2X7R)” (Bioorg Med Chem, 2025)
